# Test results reported in patent US3978055A, “Arylamino pyrimidinic derivatives” (priority 1973, dated 1976).
# Experiments:
# [1] = tested on: painful stretchings caused by phenylbenzoquinone; test: Analgesic test with phenylbenzoquinone (painful stretchings); format: in vivo; conditions: Mus musculus, po; for ED50: read-out: 105 DE (DE 50)
# volume of urine emitted = test: Augmentation of urinary elimination (diuretic properties); format: in vivo; conditions: po; mouse, 25mg/kg/p.o., 6 hours; read-out: Percentage augmentation of urinary elimination
# Procedure: The derivatives of formula I, administered by oral means to the mouse, simultaneously with a volume of 1ml of an isotonic solution of sodium chloride per 25g of the corporeal weight of the mouse, are capable of provoking an augmentation of the volume of urine emitted by reference to control animals, the volume being measured for 6 hours following administration.
# The following Table VII indicates, by way of example the percentage augmentation of urinary elimination resulting from the administration of 25mg/kg/p.o. of different derivatives of formula I.
# [2] = Lethal doses / percentage mortality; format: in vivo; conditions: in vivo, mouse; for LD50: po, Table IX, read-out: DE 50 (second column; DL 50) (converted)
# Description: As a result of a comparison between the pharmacologically active doses mentioned above, and the lethal doses listed in the following table XIV, the difference between the doses is sufficiently great to permit the utilisation of the derivatives of formula I in therapeutics.
# [3] = tested on: number of explorations in the escape enclosure; test: Number of explorations in the escape enclosure (sedative properties); format: in vivo, mouse; conditions: po; mouse, escape enclosure, 100mg/kg/p.o.; read-out: Percentage diminution of number of explorations
# [4] = tested on: local oedema caused by sub-plantar injection of carraghenine; test: Sub-plantar oedema caused by carraghenine (antiinflammatory); format: in vivo, rat; conditions: rat, read-out: Percentage reduction of subplantar oedema; for inhibition in vivo at 100 mg/kg: 100 mg/kg/PO
# Description: These properties are shown by a diminution of the local oedema caused by the sub-plantar injection of a phlogogenic agent, such as carraghenine, in the rat following the oral administration of derivatives of formula I.
# Shay ulcers = test: Gastric ulcers provoked by tying of the pylorus (Shay ulcers); format: in vivo; conditions: intraduodenal; rat, 50mg/kg/i.d.; read-out: Percentage reduction of shay ulcers
# Procedure: The derivatives of formula I, administered by oral means, reduce the extent of gastric ulcers provoked in a rat by tying of the pylorus (Shay ulcers)
# Table IV indicated, by way of example, the results obtained by the administration of 50mg/kg/i.d. of different derivatives of formula I.
# [5] = tested on: arterial pressure of anaesthetised rat; test: Lowering of arterial pressure of anaesthetised rat (hypotensive properties); format: in vivo; conditions: 1 mg/kg/i.v.; for Duration of effect: hypotensive effect
# Description: Administered by intraveinous means to an anaesthetised rat, the derivatives of formula I provoke a lowering of the arterial pressure.
# By way of example, the following Table VIII mentions the results obtained by administration of different derivatives of formula I.
# [6] = tested on: isolated heart of guinea-pig; test: Augmentation of flow of coronary vessels of isolated heart (vasodilatatory); conditions: Cavia porcellus, read-out: Percentage augmentation of flow of isolated heart of guinea-pig; for activation at 1 µg/mL: 1 μg/ml
# Procedure: The derivatives of formula I are capable of augmenting the flow of the coronary vessels of this isolated heart of a guinea - pig, when said derivatives are added in the perfusion liquid of said organ.
# The percentage augmentation of the flow of the isolated heart of the guinea - pig by adding different derivatives of formula I to the perfusion liquid are given by way of example in the following Table V.
# [7] = read-out: Percentage of diminution of the number of painful stretchings
Compound,change in vivo at 25 mg/kg (volume of urine emitted) [%],"mortality ([2]; 2000 mg/kg, 2 000 mg/kg/PO) [%]",inhibition in vivo at 100 mg/kg [4] [%],inhibition in vivo at 50 mg/kg (Shay ulcers) [%],also measured
Cc1cc(Nc2ccc(OCCN3CCOCC3)cc2)nc(-c2cccc(Cl)c2)n1 [730 695],43,0,–,–,"inhibition in vivo at 100 mg/kg [1, 7]: 85%"
COc1cc(-c2nc(C)cc(Nc3ccccc3C(=O)OCC3COC(C)(C)O3)n2)cc(OC)c1OC (stereo not shown) [71 510],–,0,40,35,inhibition in vivo at 100 mg/kg [3]: 40%
Cc1cc(Nc2ccc(C(N)=O)cc2)nc(-c2cccc(F)c2)n1 [72 773],110,~20,40,40,inhibition in vivo at 100 mg/kg [3]: 45%
Cc1cc(Nc2ccc(OCCN(C)C)cc2)nc(-c2cccc(F)c2)n1 [730 224],–,0,–,–,ED50 [1]: 30 mg/kg; LD50 [2]: > 2000 mg/kg
Cc1cc(Nc2ccc(OCCN3CCOCC3)cc2)nc(-c2ccc3c(c2)OCO3)n1 [730 731],37,0,–,–,ED50 [1]: 27 mg/kg; Percentage reduction of arterial pressure of anaesthetised rat [5]: 29%; Duration of effect [5]: 30 mn; LD50 [2]: > 2000 mg/kg
CCOC(=O)c1ccc(Nc2cc(C)nc(-c3cccc(C(F)(F)F)c3)n2)cc1 [72 505],–,0,–,–,activation at 1 µg/mL [6]: 50%
Cc1cc(Nc2ccc(C(=O)N(C)C)cc2)nc(-c2ccc(Cl)cc2)n1 [72 327],85,0,35,–,Percentage reduction of arterial pressure of anaesthetised rat [5]: 30%; Duration of effect [5]: 30 mn
Cc1cc(Nc2ccc(OCCN3CCCCCC3)cc2)nc(-c2ccccc2)n1 [730 379],–,–,–,–,mortality ([2]; 625 mg/kg/PO): ~50%
Cc1cc(Nc2ccc(OCCN(C)C)cc2)nc(-c2ccccc2)n1 [730 136],–,0,–,–,"inhibition in vivo at 100 mg/kg [1, 7]: 46%"
CCOC(=O)c1ccc(Nc2cc(C)nc(-c3ccc4c(c3)OCO4)n2)cc1 [72 613],–,0,–,70,activation at 1 µg/mL [6]: 85%
Cc1cc(Nc2ccc(OCCN3CCCCC3)cc2)nc(-c2cccc(F)c2)n1 [730 231],–,–,–,50,ED50 [1]: 27 mg/kg; mortality ([2]; 975 mg/kg/PO): ~50%; LD50 [2]: 975 mg/kg
Cc1cc(Nc2ccc(C(=O)N3CCN(c4ccccc4)CC3)cc2)nc(-c2ccc(Cl)cc2)n1 [72 260],–,0,–,35,activation at 1 µg/mL [6]: 70%
CCOC(=O)c1ccc(Nc2cc(C)nc(-c3cccc(F)c3)n2)cc1 [72 778],–,0,–,–,inhibition in vivo at 100 mg/kg [3]: 35%
COc1cc(-c2nc(C)cc(Nc3ccc(C(=O)N4CCOCC4)cc3)n2)cc(OC)c1OC [72 536],–,0,35,–,inhibition in vivo at 100 mg/kg [3]: 75%
Cc1cc(Nc2ccc(OCCN3CCCCCC3)cc2)nc(-c2cccc(Cl)c2)n1 [730 283],–,–,–,45,"inhibition in vivo at 100 mg/kg [1, 7]: 57%; activation at 0.1 µg/mL ([6]; 0.1 μg/ml): 61%; mortality ([2]; 1000 mg/kg, 1 000 mg/kg/PO): ~50%"
Cc1cc(Nc2ccc(C(=O)N3CCOCC3)cc2)nc(-c2ccc3c(c2)OCO3)n1 [72 621],–,~30,–,40,–
Cc1cc(Nc2ccc(OCCN3CCOCC3)cc2)nc(-c2ccc(N(C)C)cc2)n1 [740 140],–,0,–,–,ED50 [1]: 33 mg/kg; Percentage reduction of arterial pressure of anaesthetised rat [5]: 40%; Duration of effect [5]: 30 mn; LD50 [2]: > 2000 mg/kg
COc1cc(-c2nc(C)cc(Nc3ccc(C(N)=O)cc3)n2)cc(OC)c1OC [72 417],65,0,–,40,–
COc1cc(-c2nc(C)cc(Nc3ccc(C(=O)N4CCCCC4)cc3)n2)cc(OC)c1OC [72 317],–,0,35,40,–
Cc1cc(Nc2ccc(OCCN3CCCCC3)cc2)nc(-c2ccccc2)n1 [730 221],–,–,–,–,mortality ([2]; 520 mg/kg/PO): ~50%

Compound,change in vivo at 25 mg/kg (volume of urine emitted) [%],"mortality ([2]; 2000 mg/kg, 2 000 mg/kg/PO) [%]",inhibition in vivo at 100 mg/kg [4] [%],inhibition in vivo at 50 mg/kg (Shay ulcers) [%],also measured
COc1cc(-c2nc(C)cc(Nc3ccc(C(=O)N4CCN(C)CC4)cc3)n2)cc(OC)c1OC [72 462],–,0,35,–,"inhibition in vivo at 100 mg/kg [1, 7]: 40%"
Cc1cc(Nc2ccccc2C(=O)OCC(O)CO)nc(-c2ccc3c(c2)OCO3)n1 (stereo not shown) [72 686],–,0,–,–,"inhibition in vivo at 130 mg/kg [1, 7]: 50%; inhibition in vivo at 25 mg/kg ([4]; 25 mg/kg/PO): 35%"
"Cc1cc(Nc2ccccc2C(=O)OCC2COC(C)(C)O2)nc(-c2cccc(C(F)(F)F)c2)n1 (stereo not shown) [72 495, N-[2-(3'trifluoromethylphenyl) -6-methyl-4-pyrimidyl](2"",2"" -dimethyldioxolan-4""-yl) methyl anthranilate]",115,0,–,–,–
COc1cc(-c2nc(C)cc(Nc3ccccc3C(N)=O)n2)cc(OC)c1OC [72 442],–,0,55,–,"inhibition in vivo at 100 mg/kg [1, 7]: 70%; inhibition in vivo at 100 mg/kg [3]: 60%; Percentage reduction of arterial pressure of anaesthetised rat [5]: 30%; Duration of effect [5]: 20 mn"
Cc1cc(Nc2ccc(C(N)=O)cc2)nc(-c2cccc(C(F)(F)F)c2)n1 [72 432],200,0,45,35,inhibition in vivo at 100 mg/kg [3]: 35%
Cc1cc(Nc2ccc(C(=O)N3CCCCC3)cc2)nc(-c2ccc3c(c2)OCO3)n1 [72 687],–,0,–,40,–
"COc1cc(-c2nc(C)cc(Nc3ccc(C(=O)N4CCCC4)cc3)n2)cc(OC)c1OC [72 271, 2-(3',4',5'-trimethoxyphenyl)-4-(parapyrrolidinocarbonylphenylamino) -6-methyl pyrimidino]",–,0,35,–,inhibition in vivo at 100 mg/kg [3]: 40%
Cc1cc(Nc2ccc(C(=O)N3CCOCC3)cc2)nc(-c2cccc(F)c2)n1 [72 754],50,0,–,40,–
Cc1cc(Nc2ccccc2C(N)=O)nc(-c2ccc(Cl)cc2)n1 [72 257],–,0,–,50,activation at 1 µg/mL [6]: 80%
COc1cc(-c2nc(C)cc(Nc3ccc(C(=O)N4CCN(c5ccccc5)CC4)cc3)n2)cc(OC)c1OC [72 450],–,0,–,–,inhibition in vivo at 100 mg/kg [3]: 35%; activation at 1 µg/mL [6]: 85%
Cc1cc(Nc2ccc(C(=O)N3CCCC3)cc2)nc(-c2ccc3c(c2)OCO3)n1 [72 623],85,0,–,–,–
Cc1cc(Nc2ccccc2C(N)=O)nc(-c2cccc(F)c2)n1 [72 783],80,0,–,–,–
Cc1cc(Nc2ccc(OCCN3CCOCC3)cc2)nc(-c2ccc(Cl)cc2)n1 [730 732],–,0,–,–,ED50 [1]: 23 mg/kg; LD50 [2]: > 2000 mg/kg
Cc1cc(Nc2ccccc2C(=O)OCC2COC(C)(C)O2)nc(-c2cccc(F)c2)n1 (stereo not shown) [72 796],–,0,–,–,activation at 1 µg/mL [6]: 60%
Cc1cc(Nc2ccc(OCCN3CCCC3)cc2)nc(-c2cccc(C(F)(F)F)c2)n1 [730 243],–,–,50,–,"mortality ([2]; 1000 mg/kg, 1 000 mg/kg/PO): 0%"
Cc1cc(Nc2ccc(CC(=O)O)cc2)nc(-c2cccc(F)c2)n1 [730 234],–,–,35,–,"inhibition in vivo at 100 mg/kg [1, 7]: 55%; mortality ([2]; 2 400 mg/kg/PO): ~50%"
Cc1cc(Nc2ccccc2C(=O)OCC2COC(C)(C)O2)nc(-c2ccc3c(c2)OCO3)n1 (stereo not shown) [72 701],45,0,–,–,"inhibition in vivo at 100 mg/kg [1, 7]: 45%"
Cc1cc(Nc2ccc(C(=O)N3CCN(C)CC3)cc2)nc(-c2ccc(Cl)cc2)n1 [72 292],55,0,–,–,–
CCOC(=O)c1ccc(Nc2cc(C)nc(-c3ccc(Cl)cc3)n2)cc1 [72 283],–,0,40,–,–
